Columns and labels:
[1] = cited from earlier work
[2] = humans, cited from earlier work
[3] = test system: stromal proteins; settings: cited from earlier work
[4] = in vivo
Description: In the specification, the terms ‘eye-acceptable’ and ‘acceptable to the eye’ (as well as similar terms) are intended to mean that no lachrymatory effect is seen and/or no irritation of, and/or damage to, the surface of the eye (cornea) and/or the surrounds of the eye (the lids, tear ducts etc.) and/or the deeper structures within the eye (lens, muscles etc.).

For C[C@H]1O[C@@H](O[C@H]2[C@@H](O)C[C@H](O[C@H]3[C@@H](O)C[C@H](O[C@H]4CC[C@@]5(C)[C@H](CC[C@@H]6[C@@H]5C[C@@H](O)[C@]5(C)[C@@H](C7=CC(=O)OC7)CC[C@]65O)C4)O[C@@H]3C)O[C@@H]2C)C[C@H](O)[C@@H]1O [Digoxin], the solubility in chloroform ([1]; chloroform) is listed as “slightly soluble”, the “solubility in diluted (50%) alcohol” value ([1]; diluted (50%) alcohol) is listed as “slightly soluble” and the solubility in ether ([1]; ether) is listed as “practically insoluble”. For the same molecule, the solubility in pyridine ([1]; pyridine) was “freely soluble”, the solubility in water ([1]; water) was “practically insoluble” and the bioavailability ([2]; calculated from an oral dosage form) was “about 80%”. The half-life ([2]; oral dosage form) was 42 h.
For CCO [ethanol], the “toxic effect on stromal proteins” value [3] is given as “direct toxic effect” and the “maximum concentration which is acceptable in and to the eye” value [4] is given as 2.5 v/v %.

Reference: patent US20100137232A1 (priority 2004, published 2010)
